Here are results for 19 molecules from patent US7622471B2, “Pyrazole derivatives having a pyridazine and pyridine functionality” (Daiichi Pharmaceutical Co., Ltd., priority 2003, dated 2009).

Series [1] has as its system collagen-induced platelet aggregation. The series is described as follows: Platelet aggregation-inhibiting action (collagen-induced aggregation of human platelet rich plasma). The note with it: human PRP, read-out: Inhibition of collagen-induced platelet aggregation, IC50. The class given is cell-based. How it is done:
Human blood was collected in the presence of 3.13% sodium citrate as an anticoagulant in a volume 1/10 the blood volume. The collected blood was centrifuged at 180 g for 10 minutes so as to separate the upper layer; i.e., platelet rich plasma (PRP) from the blood. The remaining lower layer was further centrifuged at 1600 g for 10 minutes, and platelet poor plasma (PPP); i.e., the thus-obtained upper layer, was collected. A solution (1 μL) of the inventive compound was added to PRP (200 μL), and the mixture was allowed to stand at 37° C. for 2 minutes. Subsequently, collagen (2 μL) was added to the resultant mixture so as to induce platelet aggregation. Percent platelet aggregation was measured by means of PAM-12C(SSR Engineering). Optical transmittance of PPP was employed as the value reflecting the state in which 100% coagulation occurred. Percent platelet aggregation values of PRP were determined at a series of concentrations of each Example compound. From the determined values, IC50 with respect to each compound was calculated.

The target in the next series is T1, cyclooxygenase-1 (COX-1) (Ovis aries, UniProt P05979).
T1 construct: purchased Cayman Chemical Company 560101 and 560121
T1 sequence (P05979 25-600): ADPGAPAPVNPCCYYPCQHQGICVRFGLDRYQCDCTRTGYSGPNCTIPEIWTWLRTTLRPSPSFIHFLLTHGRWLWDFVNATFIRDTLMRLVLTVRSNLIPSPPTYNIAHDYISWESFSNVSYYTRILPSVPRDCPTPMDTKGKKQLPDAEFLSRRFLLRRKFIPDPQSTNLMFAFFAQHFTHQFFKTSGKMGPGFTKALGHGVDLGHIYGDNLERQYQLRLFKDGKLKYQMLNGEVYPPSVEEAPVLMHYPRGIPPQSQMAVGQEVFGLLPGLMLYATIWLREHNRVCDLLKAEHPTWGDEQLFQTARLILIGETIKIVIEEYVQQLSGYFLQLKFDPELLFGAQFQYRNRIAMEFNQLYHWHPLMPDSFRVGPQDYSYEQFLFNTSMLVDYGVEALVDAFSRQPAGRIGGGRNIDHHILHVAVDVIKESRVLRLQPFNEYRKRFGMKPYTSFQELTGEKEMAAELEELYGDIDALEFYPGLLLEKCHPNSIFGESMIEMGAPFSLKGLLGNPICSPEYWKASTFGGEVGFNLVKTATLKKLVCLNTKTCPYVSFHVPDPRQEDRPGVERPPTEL
The series is described as follows: Inhibitory effect on COX-1 (COX Inhibitor Screening Assay Kit, PGF2α ELISA). Format: biochemical. The note with it: 50 μM compound. The protocol: (§1) Inhibitory activity against COX-1 and COX-2 of the compounds produced in the Examples was measured using a COX Inhibitor Screening Assay Kit (product of Cayman Chemical Company, Catalog Nos. 560101 and 560121).
(§2) Before starting the measurement, reaction buffer, heme, arachidonic acid, SnCl2, EIA buffer, washing buffer, prostaglandin (PG) screening EIA standard, PG screening acetylcholine esterase (AchE), tracer (chromogenic enzyme […] conjugate), and PG screening EIA antiserum were prepared ready for use.
(§3) (1) Production of PGF2α in the Presence of COX-1 or COX-2
(§4) A reaction mixture containing the compound of the Examples (50 μM) and COX-1 or COX-2 was incubated at 37° C. for 10 minutes. Arachidonic acid (10 μL) was added thereto, and the resultant mixture was further incubated at 37° C. for 2 minutes. 1N-Hydrochloric acid (50 μL) was added to the reaction mixture, to thereby stop the reaction. SnCl2 solution (100 μL) was added thereto, and the resultant mixture was kept at room temperature for 5 minutes.
(§5) (2) Quantitative Determination of PGF2α through ELISA
(§6) Antiserum (rabbit anti-PGF2αantibody, 50 μL) was added to the wells of 96 well plate that had been coated with mouse anti-rabbit IgG. A solution of PGF2α-containing mixture obtained above (2000-fold dilution, 50 μL) and AchE tracer (50 μL) were added to the well in this order, and the mixture was incubated at room temperature for 18 hours. The wells were washed 5 times with the washing buffer to remove an excessive AchE tracer, and Ellman reagent (200 μL) was added. After keeping the plate in a dark room for 60 minutes, absorbance at 405 nm was measured.
(§7) (3) Calculation of Inhibitory Activity of the Compound of the Examples
(§8) A calibration curve was obtained by use of the PG screening EIA standard, and the production amount of PGF2α was determined from the absorbance. Percent inhibition of COX-1 or COX-2 activity at 50 μM of the compound of the Examples was calculated.
For orientation: ELISA stands for enzyme-linked immunosorbent assay.

The target in the next series is T2, cyclooxygenase-2 (COX-2) (Homo sapiens, UniProt P35354).
T2 construct: purchased Cayman Chemical Company 560101 and 560121
T2 sequence (P35354 18-604): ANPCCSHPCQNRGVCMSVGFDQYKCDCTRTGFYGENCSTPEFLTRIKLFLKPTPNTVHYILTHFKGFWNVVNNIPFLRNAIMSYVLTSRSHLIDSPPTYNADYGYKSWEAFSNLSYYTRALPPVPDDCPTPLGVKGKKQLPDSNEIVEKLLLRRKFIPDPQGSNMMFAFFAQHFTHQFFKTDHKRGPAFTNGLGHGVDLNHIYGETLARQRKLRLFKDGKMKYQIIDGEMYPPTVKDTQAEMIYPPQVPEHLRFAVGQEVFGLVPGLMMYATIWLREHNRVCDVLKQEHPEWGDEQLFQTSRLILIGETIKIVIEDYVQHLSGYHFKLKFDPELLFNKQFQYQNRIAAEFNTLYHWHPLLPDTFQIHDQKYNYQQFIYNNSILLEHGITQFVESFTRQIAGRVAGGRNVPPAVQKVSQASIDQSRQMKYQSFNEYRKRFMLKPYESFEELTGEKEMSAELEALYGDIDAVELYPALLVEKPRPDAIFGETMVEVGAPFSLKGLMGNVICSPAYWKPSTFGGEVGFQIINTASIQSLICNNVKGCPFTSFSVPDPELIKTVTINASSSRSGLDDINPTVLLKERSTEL
The series is described as follows: Inhibitory effect on COX-2 (COX Inhibitor Screening Assay Kit, PGF2α ELISA). The note with it: 50 μM compound. Format: biochemical. The protocol:
as §1, §2, §3, §4, §5, §6, §7, §8

The test system of series [2] is collagen-induced platelet aggregation. The note with it: prior-art compound, cited from earlier work.
The conditions of series [3]: not dose-dependent; cited from earlier work.

pIC50: −log10 of the molar value. Read-outs that look alike come from different tables or passages of the source.

A word on the pIC50: it is the IC50 on a negative log10 scale, so that one unit is a factor of ten.

`COc1ccc(-n2nc(C(=O)N3CCCC(F)(F)C3)cc2-c2ccccn2)nn1` [Example 140, 1-[1-(6-Methoxy-3-pyridazinyl)-5-(2-pyridyl)pyrazole-3-carbonyl]-3,3-difluoropiperidine]: the pIC50 in series [1] was 6.96.

On to `COc1ccc(-n2nc(C(=O)N3CCCCN3C(C)=O)cc2-c2ccccn2)cn1` [Example 163, 1-[1-(6-Methoxy-3-pyridyl)-5-(2-pyridyl)pyrazole-3-carbonyl]-2-acetylhexahydropyridazine], for which, in series [1], the pIC50 is 7.05.

As for `COc1ccc(-n2nc(C(=O)N3CCOCC3)cc2-c2ccc[nH]2)cn1` [Example 168, 4-[1-(6-Methoxy-3-pyridyl)-5-(pyrrol-2-yl)pyrazole-3-carbonyl]morpholine], the pIC50 in series [1] is 7.77.

For `COc1ccc(-n2nc(C(=O)N3CCN(C4CC4)CC3)cc2-c2ccccn2)cn1` [Example 55, 1-[1-(6-Methoxy-3-pyridyl)-5-(2-pyridyl)pyrazole-3-carbonyl]-4-cyclopropylpiperazine], in series [1], the pIC50 is 7.46.

Regarding `COc1ccc(-n2nc(C(=O)N3CCN(C)CC3)cc2-c2ccccn2)nn1` [Example 132, 1-[1-(6-Methoxy-3-pyridazinyl)-5-(2-pyridyl)pyrazole-3-carbonyl]-4-methylpiperazine], the “Inhibitory effect against COX-1 at 50 μM (% inhibition)” value at cyclooxygenase-1 (COX-1) is listed as 2.7 % inhibition. Further, at cyclooxygenase-2 (COX-2), the “Inhibitory effect against COX-2 at 50 μM (% inhibition)” value stood at 10.5 % inhibition. Besides, the pIC50 in series [1] is 6.40.

For `COc1ccc(-n2nc(C(=O)N3CCN(C)CC3)cc2-c2ccccc2)cn1` [Example 62, 1-[1-(6-Methoxy-3-pyridyl)-5-phenylpyrazole-3-carbonyl]-4-methylpiperazine], on cyclooxygenase-1 (COX-1), the “Inhibitory effect against COX-1 at 50 μM (% inhibition)” value is reported as −2.4 % inhibition. Moreover, on cyclooxygenase-2 (COX-2), the “Inhibitory effect against COX-2 at 50 μM (% inhibition)” value is listed as −2.6 % inhibition. Also, the pIC50 in series [1] is 6.92.

With `COc1ccc(-c2cc(C(F)F)nn2-c2ccc(S(N)(=O)=O)cc2)cc1F` [compound (B)], the “platelet aggregation inhibitory activity compared with inhibitory activity against COX-2” value in series [2] (in words) was “not so potent”.

With `COc1ccc(-n2nc(C(=O)N3CC(N(C)C)C3)cc2-c2ccccc2)cn1` [Example 70, 1-[1-(6-Methoxy-3-pyridyl)-5-phenylpyrazole-3-carbonyl]-3-dimethylaminoazetidine], in series [1], the pIC50 was 6.59.

In the case of `COc1ccc(-n2nc(C(=O)N3CCOCC3)cc2-c2ccccn2)cn1` [Example 36, 4-[1-(6-Methoxy-3-pyridyl)-5-(2-pyridyl)pyrazole-3-carbonyl]morpholine], the pIC50 in series [1] is 6.85.

As for `CS(=O)(=O)c1ccc(-c2cc(C#N)nn2-c2ccc(F)cc2)cc1` [Compound (A)], the pIC50 in series [2] (read-out: IC50 value against collagen-induced platelet aggregation) is 5.28.

For `COc1ccc(-n2nc(C(=O)N3CCC(F)(F)CC3)cc2-c2ccccn2)nn1` [Example 139, 1-[1-(6-Methoxy-3-pyridazinyl)-5-(2-pyridyl)pyrazole-3-carbonyl]-4,4-difluoropiperidine], on cyclooxygenase-1 (COX-1), the “Inhibitory effect against COX-1 at 50 μM (% inhibition)” value was 7.6 % inhibition. The “Inhibitory effect against COX-2 at 50 μM (% inhibition)” value at cyclooxygenase-2 (COX-2) is given as 3.4 % inhibition. Further, the pIC50 in series [1] was 7.38.

For the molecule `COc1ccc(-n2nc(C(=O)N3CCCCC3)cc2-c2ccccn2)nn1` [Example 122, 1-[1-(6-Methoxy-3-pyridazinyl)-5-(2-pyridyl)pyrazole-3-carbonyl] piperidine], the “Inhibitory effect against COX-1 at 50 μM (% inhibition)” value at cyclooxygenase-1 (COX-1) is 1 % inhibition. Further, the “Inhibitory effect against COX-2 at 50 μM (% inhibition)” value on cyclooxygenase-2 (COX-2) was 4.5 % inhibition. The pIC50 in series [1] was 6.12.

As to `CC(=O)Oc1ccccc1C(=O)O` [Aspirin], the “rate of side effects such as hemorrhage in gastrointestine (aspirin-induced ulcer)” value in series [3] was “about 1 per 100 patients”.

`COc1ccc(-n2nc(C(=O)N3CCN(C)C(=O)C3)cc2-c2ccccn2)cn1` [Example 23, 1-[1-(6-Methoxy-3-pyridyl)-5 (2-pyridyl)pyrazole-3-carbonyl]-4-methyl-3-oxopiperazine]: the “Inhibitory effect against COX-1 at 50 μM (% inhibition)” value at cyclooxygenase-1 (COX-1) is −1.2 % inhibition. In addition, the “Inhibitory effect against COX-2 at 50 μM (% inhibition)” value on cyclooxygenase-2 (COX-2) was determined as 3.4 % inhibition. Moreover, the pIC50 in series [1] was 6.77.

For the molecule `COc1cnc(-n2nc(C(=O)N3CCN(C)CC3)cc2-c2ccccn2)cn1` [Example 144, 1-[1-(5-Methoxy-2-pyrazinyl)-5-(2-pyridyl)pyrazole-3-carbonyl]-4-methylpiperazine], the “Inhibitory effect against COX-1 at 50 μM (% inhibition)” value on cyclooxygenase-1 (COX-1) was 9.7 % inhibition. In addition, the “Inhibitory effect against COX-2 at 50 μM (% inhibition)” value on cyclooxygenase-2 (COX-2) is 8.8 % inhibition. In addition, in series [1], the pIC50 is 6.36.

For the molecule `COc1ccc(-n2nc(C(=O)N3CCN(C)CC3)cc2-c2ccc[nH]2)cn1` [Example 167, 1-[1-(6-Methoxy-3-pyridyl)-5-(pyrrol-2-yl)pyrazole-3-carbonyl]-4-methylpiperazine], the pIC50 in series [1] was 7.54.

As to `COc1ccc(-n2nc(C(=O)N3CCCOCC3)cc2-c2ccccn2)cn1` [Example 160, 4-[1-(6-Methoxy-3-pyridyl)-5-(2-pyridyl)pyrazole-3-carbonyl]-1,4-oxazepane], in series [1], the negative logarithm of the IC50 (pIC50) was 6.77.

Regarding `COc1ccnc(-c2cc(C(=O)N3CCN(C)CC3)nn2-c2ccc(OC)nc2)c1` [Example 27, 1-[1-(6-Methoxy-3-pyridyl)-5-(4-methoxy-2-pyridyl)pyrazole-3-carbonyl]-4-methylpiperazine], the “Inhibitory effect against COX-1 at 50 μM (% inhibition)” value on cyclooxygenase-1 (COX-1) is recorded as 0.5 % inhibition. Also, at cyclooxygenase-2 (COX-2), the “Inhibitory effect against COX-2 at 50 μM (% inhibition)” value is recorded as −0.1 % inhibition. Further, the pIC50 in series [1] is 6.57.

As for `COc1ccc(-n2nc(C(=O)N3CCN(C)CC3)cc2-c2cnccn2)cn1` [Example 148, 1-[1-(6-Methoxy-3-pyridyl)-5-(2-pyrazinyl)pyrazole-3-carbonyl]-4-methylpiperazine], the pIC50 in series [1] is 7.05.
